Assay results reported in US20240335465A1 (University of Virginia Patent Foundation, priority 2021, published 2024).

Columns and labels:
NAD^+ = assay: NAD+ quantification; type: cell-based, human; conditions: WT and STING−/− THP1, cGAMP
DDR signaling [1] = assay: DDR signaling immunoblotting in THP1 cells
DDR signaling [2] = assay: DDR signaling immunoblotting in primary mouse embryonic fibroblasts
Crassostrea virginica = assay: DDR in oysters after adductor muscle injection; type: in vivo; conditions: hemocytes; cGAMP 25 μg/50 gm, doxorubicin 1 μg/50 gm oyster weight, 16 hours
Protocol: Oysters: Wild adult eastern oysters (Crassostrea virginica) of both male and female sexes ranging from 2 cm-7 cm in length (1 to 3 years in age) were collected from a natural oyster reef on Virgnia's Eastern Shore. Following collection, the diploid oysters were placed on ice and transported approximately 3 h to the University of Virginia main campus in Charlottesville, VA. There they were stored in an aerated aquarium containing water supplemented with Instant Ocean® Aquarium Sea Salt (50 gm/l). […] Treated oysters were kept at 4° C. in the dark for 16 hours after which they were shucked, had their hemolymph/tissues harvested for analysis by western blotting, and dead oyster and shell were disposed of.

DDR signaling [3] = assay: DDR signaling immunoblot in STING-reconstituted U2OS cells; type: cell-based, human; conditions: cGAMP 18 hours
Protocol: Generation of U2OS-STING cells: WT U2OS cells were reconstituted with STING by integrating LentiORF-TMEM173 (CCSB-Broad Lentiviral Expression Collection, TMEM173, Cat #ccsbBroad304_05465) via lentiviral transduction of U2OS cells as described above. Exposure to blasticidin (10 μg/ml) for 14 days facilitated the selection of STING integrated cells whose protein over-expression profiles were assessed by immunoblotting.

Nematostella vectensis = assay: DDR in starlet sea anemones; type: in vivo; conditions: whole animals; cGAMP in digitonin solution 10 minutes; doxorubicin 2 μM; 16 hours
From the text: Starlet sea anemones: Wild type, laboratory maintained, Self-sustaining Nematostella vectensis culture containing of 3-6 months old male and female animals (Putnam et al., 2007) was a kind gift from Timothy J. Jegla (Penn State University Department of Biology). They were maintained in 6-well plates containing water with Instant Ocean® Aquarium Sea Salt (50 gm/l) and fed brine shrimp. […] Permeabilization solution was removed and the animals returned to maintenance sea salt water. Doxorubicin was added to the maintenance sea salt water to a final concentration of 2 μM. 16 hours post treatment. N. vectensis were collected and washed once with cold PBS before the addition of 200 μl RIPA buffer. Samples were homogenized by sonication and centrifuged at 4° C. to remove debris. Soluble lysates were quantified for protein analysis by western blot.

cell cycle progression = assay: Cell cycle analysis by flow cytometry (BrdU, propidium iodide); type: cell-based, human
Protocol: Cells were washed with cold PBS and resuspended in 0.5 ml PBS to achieve a single cell suspension. Cells were fixed in a tube containing 4.5 ml 70% ethanol kept at 4° C. overnight. Cells were collected by centrifugation at 500 g for 5 minutes and washed twice with PBS. Washed cells were then stained with 1 ml of freshly prepared staining solution containing propidium iodide (10 μg/ml), DNase-free RNaseA (100 μg/ml), and 0.1% (v/v) Triton X-100 before being subjected to flow cytometry measurement. To determine percentage of cell population in various cell cycle stage, ˜10,000-30,000 cells were acquired on an Attune NxT cytometer and analyzed using FCS Express software. Cell cycle analysis was performed on propidium iodide stained cells and single cell events were determined by gating on the area against the width of the propidium iodide pulse signal. DNA cell cycle modeling and fit was performed using the Multicycle AV plugin (Phoenix Flow Systems).
Cells were fixed and stained to detect BrdU incorporation by flow cytometry following the manufacturer's protocol (FITC BrdU Flow Kit, BD Biosciences, Cat #559619).

THP1 cells = assay: Quantitative RT-PCR gene expression in THP1 cells; type: cell-based, human
From the text: Quantitative RT-PCR analysis: Cells collected at indicated time points were washed with ice cold PBS and lysed in lml Trizol (Invitrogen). Total RNA extracted according to the manufacturer's recommendations was DNase treated and reverse transcribed to make cDNA with a QuantiTect Reverse Transcription kit (QIAGEN). The cDNAs synthesized were amplified by real-time quantitative PCR (Applied Biosystems 7900 HT Fast Real-Time PCR system) with Power SYBR green Master Mix. Relative gene expression was determined by the 2-ΔΔCt method, and 18S rRNA or GAPDH was used as an internal control. Primer details in Table 2.

DDR signaling [4] = assay: DDR signaling immunoblot in HEK293 cells; type: cell-based, human; conditions: HEK293, 4 hours post transfection
[5] = system: one-cell fertilized C57BL/6J embryos; assay: CRISPR/Cas9 mediated gene editing in mouse embryos; type: cell-based; conditions: Rosa26 locus, 1 fmole/embryo cGAMP
Protocol: CRISPR/Cas9 mediated gene editing in mouse embryos: Target sites were selected and gRNAs for these target sites were synthesized via in vitro transcription followed by column clean up and ethanol precipitation purification. One-cell fertilized C57BL/6J embryos were microinjected with a mixture of gRNA (50 ng/μl), ssODN (50 ng/μl, IDT, Table 2), and Cas9 protein (40 ng/μl, PNA Bio). […] Injected embryos were cultured to blastocysts then lysed to isolate genomic DNA. The edited locus (Rosa26) was amplified via PCR, and samples were indexed, pooled and run on a MiSeq Nano 2×250 Reagent Kit. Demultiplexed data was analyzed with CRISPResso (Pinello et al., 2016). Reads ambiguously categorized as “HDR/NHEJ” were manually sorted using a window 30 bp wide flanking the cut site, where reads identical to the expected HDR sequence were recategorized accordingly. Samples with fewer than 100 reads were excluded from analysis.

Compound: Nc1nc2c(ncn2[C@@H]2O[C@@H]3COP(=O)(O)O[C@H]4[C@@H](O)[C@H](n5cnc6c(N)ncnc65)O[C@@H]4COP(=O)(O)O[C@@H]2[C@@H]3O)c(=O)[nH]1 [cGAMP, cyclic guanosine monophosphate-adenosine monophosphate]
- abundance of cellular NAD^+ (NAD^+): significantly reduced the abundance of cellular NAD^+ in a STING-dependent manner
- cGAMP-mediated induction of γH2AX and pCHK2 (DDR signaling [1]; IFNAR1 and STAT2 knockdown THP1 cells): failed to impede cGAMP-mediated induction of γH2AX and pCHK2
- activation of DDR by cGAMP (H2AX, ATM, CHK2 phosphorylation) (DDR signaling [1]; STING−/− THP1 cells, 16 hours): abrogated by the deletion of STING
- DDR activation (γH2AX, pCHK2) (DDR signaling [1]; THP1, LPS 500 ng/ml 6 hours, cGAMP 16 hours): activated the DDR
- ATR phosphorylation (pATR) (DDR signaling [1]; WT THP1): inducing ATR phosphorylation
- CHK1 activation (pCHK1) (DDR signaling [1]; WT THP1): neither activation of CHK1
- cGAMP-induced DDR signaling (DDR signaling [1]; cGAS−/− THP1 cells, 16 hours): proceeded normally in cGAS-deficient cells
- γH2AX in target THP1 cells incubated with conditioned media from cGAMP treated cells (DDR signaling [1]; conditioned media collected after 18 hours, 18 hours on target cells): failed to induce γH2AX
- cGAMP-induced DDR signaling (DDR signaling [1]; shTBK1 knockdown THP1 cells): substantially reduced cGAMP-induced DDR signaling
- cGAMP-induced H2AX phosphorylation (DDR signaling [2]; Ifnar1−/− or Stat2−/− primary MEFs): unimpaired
- activation of DDR marker γH2AX (DDR signaling [2]; Irf3−/− primary MEFs, 16 hours): proceeded normally
- activation of DDR by cGAMP (γH2AX) (DDR signaling [2]; Sting−/− primary MEFs, 16 hours): abrogated by the deletion of STING
- DDR activation (γH2AX) (DDR signaling [2]; WT primary MEF, Pam3CSK4 500 ng/ml 6 hours, HT-DNA 4 ug/6-well 6 hours, 5′ppp-dsRNA 0.5 μg/6 well 6 hours, cGAMP 16 hours): activated the DDR
- TBK1 phosphorylation (pTBK1) (Crassostrea virginica): TBK1 phosphorylation
- γH2AX (Crassostrea virginica): elevated levels of γH2AX
- DDR signaling (γH2AX, pCHK2) (DDR signaling [3]): exhibiting biochemical evidence of DDR signaling
- TBK1 phosphorylation (pTBK1) (Nematostella vectensis): TBK1 phosphorylation
- γH2AX (Nematostella vectensis): elevated levels of γH2AX
- dependence of cGAMP-induced G1 cell cycle arrest on STING, TBK1, IFNAR1, STAT2 (cell cycle progression; STING−/−, shTBK1, shIFNAR1, shSTAT2 THP1): reliant on the former two signaling proteins (i.e. STING and TBK1), but occurs independently of IFNAR and STAT2
- G1 arrest in unperturbed and PARP-inhibited cells (cell cycle progression; WT THP1, 10 μM Rucaparib or vehicle, 24 hours): promotes G1 arrest in both unperturbed as well as PARP-inhibited cells
- number of cells in the S-phase (cell cycle progression; WT THP1, BrdU, 24 hours): decreased the number of cells in the S-phase
- proportion of cells in the G1 phase (cell cycle progression; WT THP1, BrdU, 24 hours): substantially increased the proportion of cells arrested in the G1 phase
- cGAMP-induced G1 arrest after p53 knockdown (cell cycle progression; shP53 U2OS-STING cells, 24 hours): abrogated the cGAMP-induced G1 arrest
- dependence of DDR gene induction on STING and TBK1 (THP1 cells; STING−/− THP1, 10 μM MRT67307 2 hours then cGAMP 6 hours): dependent on STING and TBK1
- induction of IFN genes (IFN-β and ISGs) (THP1 cells; THP1, exogenous cGAMP 1 μg vs transfected HT-DNA 2 μg): comparable to that of cytosolic DNA-induced, endogenously produced cGAMP
- CDKN1A/p21 transcript (THP1 cells; WT THP1, 6 hours): strong induction of CDKN1A/p21
- transcript abundance of E2F target genes (THP1 cells; WT THP1, 6 hours): decreased transcript abundance of E2F target genes
- phosphorylation status of H2AX, STING, and STAT2 (DDR signaling [4]): respond normally to cGAMP stimulation
- CRISPR/Cas9-mediated HDR editing [5]: significantly diminished
- non-homologous end joining (NHEJ) [5]: unaffected
- total editing frequency [5]: unaffected
